The conditions of data set [1]: Experientia 44, 230, (1988); cited from earlier work.
In data set [2] the test system is HeLa S3 cells. In words: Growth inhibition to Hela S3 cells (Neutral Red staining, 72 hours). Particulars: Homo sapiens, 37° C., MEM with 10% fetal bovine serum, 550 nm. The class given is cell-based. The method, then: (§1) Growth inhibition to Hela S3 cells
(§2) 0.1 Milliliter of a test compound properly diluted with an MEM culture containing 10% fetal bovine serum and 2 mM of glutamine was placed in each of 96 wells of a microtiter plate. Then, trypsinized HeLa S3 cells (ATCC HTB22) were adjusted with the above culture to form a solution containing 3×10^4 cells/ml, and 0.05 ml of the solution was added to each well.
(§3) The above plate was cultured in a carbonic acid gas incubator at 37° C. for 72 hours, and then culture supernatants were removed. 0.1 Milliliter of a culture medium containing 0.02% Neutral Red was added to each well, and the plate was cultured in the carbonic acid gas incubator at 37° C. for 1 hour to stain the cells. After culture supernatants were removed, the remainders were once washed with a physiological saline solution. Then, the dyestuff was extracted with 0.001N hydrochloric acid/30% ethanol, and the absorbance at 550 nm was measured with a microplate reader. In comparison between the absorbance of untreated cells and the absorbance of cells treated with the known concentration of the test compound, the growth inhibition ratio of the cells was calculated on the basis of the following equation. [formula] A: Absorbance of cells treated with the compound B: Absorbance of a well containing no cells
(§4) C: Absorbance of untreated cells […]

For data set [3], the system named is growing cells. In words: cell cycle analyzed with a flow cytometer. The class given is cell-based. A general note: A flow cytometer gives signals particle by particle.
Data set [4] in a line: Solubility. It is filed as physicochemical.
For data set [5], the system named is cultured tumor cells. In words: antitumor activity against cultured tumor cells (summary statement). It is filed as cell-based. The method, then: as §1, §2, §3, §4

The values that follow come from patent US5276177A, “Physiologically active substance” (Matsuno; Tetsuya, priority 1991, dated 1994).

Converted amounts (≈) assume the structure as drawn.

In the case of `O=C(/C=C/c1ccc(O)c(O)c1)OCCc1ccccc1` [phenetyl cafeate], in data set [1], the antitumor activity entry was “has antitumor activity”.
As to `CC(=CC(=O)O)CC[C@@]1(C)[C@H](CO)CC[C@@]2(C)C(C)=CCC[C@H]12` [novel physiologically active substance], the IC50 (commonly the concentration that gives 50% inhibition) in data set [2] is 87 µg/mL (≈ 271 µM). Further, the cell cycle effect entry in data set [3] was “terminated the growing cells at S phase and destroyed them”. Also, the Solubility result is “Sparingly soluble in acidic water” in data set [4] (in acidic water); “Soluble in methanol, ethyl acetate, chloroform and DMSO” in data set [4] (in methanol, ethyl acetate, chloroform and DMSO). Further, the antitumor activity result in data set [5] is reported as “exhibits antitumor activity against cultured tumor cells”.
